Tests used:
[1] = molecular target: T1, IL-13Rα2 receptor on GBM cells (U-251 MG) (Homo sapiens, UniProt Q14627); experiment: Colorimetric MTS/PMS cell viability assay: neutralization of IL-13.E13K-PE38QQR cytotoxicity (competition for receptor); type: cell-based
T1 construct: endogenous in cells; host or cells: U-251 MG human glioblastoma cells (ATCC)
T1 sequence (Q14627 27-380): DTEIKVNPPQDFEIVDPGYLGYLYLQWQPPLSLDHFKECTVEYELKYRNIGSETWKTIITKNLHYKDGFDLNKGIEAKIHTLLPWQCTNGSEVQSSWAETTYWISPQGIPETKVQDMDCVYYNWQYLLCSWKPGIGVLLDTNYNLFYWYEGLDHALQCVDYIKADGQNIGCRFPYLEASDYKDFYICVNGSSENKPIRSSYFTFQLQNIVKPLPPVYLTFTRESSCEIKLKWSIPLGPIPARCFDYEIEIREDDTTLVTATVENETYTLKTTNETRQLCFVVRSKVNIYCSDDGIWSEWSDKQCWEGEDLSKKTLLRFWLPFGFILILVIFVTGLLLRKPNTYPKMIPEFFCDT
Protocol: 1× 10^3 U-251 MG cells were plated per well in quadruplicates for each concentration to be tested. IL-13.E13K-PE38QQR is an IL-13Rα2 based cytotoxin against GBM (24). After 24 hours incubation at […] for the cells to attach, a fixed concentration (i.e. 1 μM) of the IL13.E13K-D2-NLS and other purified proteins were added and incubated at 37° C. for 1 hr. After 1 hr. incubation, increasing concentrations of the IL-13.E13K-PE38QQR ranging from 0.1 to 100 ng/ml was added and the plate was incubated for 48 hr. Cells treated with cyclohexamide and just the cytotoxins were used as controls. After 48 hr., cell viability was measured using the MTS [3-(4,5-dimethylthiazol-2-yl)-543-carboxymethoxyphenyl)-2-(4-sulfophenyl)-2H-tetrazolium]/PMS [phenazine methosulfate] dye (Promega, Madison, Wis.) as per the manufacturer's instructions. The absorbance from the assay was measured at 490 nm using the plate reader Spectra max 340 PC (Molecular Devices, Sunnyvale, Calif.) and data was plotted as percentage of control versus concentration of the toxin used.
To this end, we carried out a cell-viability assay in which these recombinant proteins bound to the IL-13Rα2 receptor and protected against cytotoxic action of IL-13.E13K-PE38QQR. […]

[2] = tested on: IL-13Rα2 positive U-251 MG cells; experiment: Localization of biotin-conjugated proteins, tyramide signal amplification, confocal microscopy; type: cell-based, Human
Protocol: Biotin-XX microscale protein labeling kit (Invitrogen, Carlsbad, Calif.) was used to label the proteins as per the manufacturer's instructions. A different molar ratio of 12, 8 or 4 biotin-dye to the proteins was used. The biotin-labeled proteins were run on a gel and a western blot carried out using streptavidin-HR.P (Pierce, Rockford, Ill.) to detect for biotin-labeled proteins. The number of Biotin molecules attached to the proteins was determined by the Biofluoreporter assay kit (Invitrogen) as per the manufacturer's guidelines.
12,500 U-251 MG GBM cells were plated on coverslips per well in a 24-well plate. […] After the incubations, the cells were fixed with 4% paraformaldehyde (Ted Pella, Redding, Calif.) for 15 mins at 37° C. and washed with PBS 4× times. The cells were then permeabilized with 0.1% Triton-X-100/0.2% BSA-PBS for 10 min at RT. After permeabilization, the cells were washed 3 times with 1×PBS. After washings, Tyramide signal amplification kit (Invitrogen, Carlsbad, Calif.) using Alexa fluor 488 dyes and HR.P-streptavidin was carried out as per manufacturer's instructions. Topro-3 iodide (Invitrogen, Carlsbad, Calif.) was added at a concentration of 1:1000 dilution of the 1 mM stock to stain the cell nuclei. […]

[3] = tested on: G48a GBM cells, which over-express IL-13Rα2; experiment: Localization of biotin-conjugated proteins in G48a GBM cells; type: cell-based
Protocol: 12,500 U-251 MG GBM cells were plated on coverslips per well in a 24-well plate. […] After the incubations, the cells were fixed with 4% paraformaldehyde (Ted Pella, Redding, Calif.) for 15 mins at 37° C. and washed with PBS 4× times. The cells were then permeabilized with 0.1% Triton-X-100/0.2% BSA-PBS for 10 min at RT. After permeabilization, the cells were washed 3 times with 1×PBS. After washings, Tyramide signal amplification kit (Invitrogen, Carlsbad, Calif.) using Alexa fluor 488 dyes and HR.P-streptavidin was carried out as per manufacturer's instructions. Topro-3 iodide (Invitrogen, Carlsbad, Calif.) was added at a concentration of 1:1000 dilution of the 1 mM stock to stain the cell nuclei. After the tyramide staining, wells were washed and mounted with gel mount (Biomeda, Foster City, Calif.) and observed with LSM 510 Zeiss Confocal Microscope (Cellular Imaging Core, Comprehensive Cancer Center, Wake Forest University) and the images processed using Zeiss LSM Image Browser (version 4.2).
We repeated the above experiments in another GBM cell line, G48a (13), which over-expresses IL-13Rα2. We obtained similar results as with the U-251 MG cells.

[4] = tested on: LN229 cells, very low expressors of IL-13Rα2; experiment: Localization of biotin-labeled proteins in LN229 cells; type: cell-based, Human; conditions: 24 hr.
Protocol: 12,500 U-251 MG GBM cells were plated on coverslips per well in a 24-well plate. After 24 hr., 1 μM/well of biotin-labeled proteins was added onto the U-251 MG cells for 15 min, 4, 8 and 24 hr. After the incubations, the cells were fixed with 4% paraformaldehyde (Ted Pella, Redding, Calif.) for 15 mins at 37° C. and washed with PBS 4× times. The cells were then permeabilized with 0.1% Triton-X-100/0.2% BSA-PBS for 10 min at RT. After permeabilization, the cells were washed 3 times with 1×PBS. After washings, Tyramide signal amplification kit (Invitrogen, Carlsbad, Calif.) using Alexa fluor 488 dyes and HR.P-streptavidin was carried out as per manufacturer's instructions. Topro-3 iodide (Invitrogen, Carlsbad, Calif.) was added at a concentration of 1:1000 dilution of the 1 mM stock to stain the cell nuclei. After the tyramide staining, wells were washed and mounted with gel mount (Biomeda, Foster City, Calif.) and observed with LSM 510 Zeiss Confocal Microscope (Cellular Imaging Core, Comprehensive Cancer Center, Wake Forest University) and the images processed using Zeiss LSM Image Browser (version 4.2).
We carried out identical experiments with biotin-labeled IL-13.E13K-D2-NLS in LN229 cells, very low expressors of IL-13Rα2.

Substance: IL-13.E13K
- protection against cytotoxic action of IL-13.E13K-PE38QQR (competition for IL-13Rα2) ([1]; U-251 MG cells, 1 μM protein 1 hr before 0.1 to 100 ng/ml cytotoxin, 48 hr): blocked the action of the cytotoxin
- binding of biotin-conjugated proteins to IL-13Rα2 on GBM cells ([1]; biotin-conjugated proteins): bind to the IL-13Rα2
- subcellular localization ([2]; biotin label, 8, 4 hr and 5 min, data not shown): demonstrate the results observed at 24 hr
- subcellular localization ([2]; biotin label, 24 hr.): accumulated mainly in the peri-nuclear region
- nuclear localization ([3]; any of the time-points): not found to have any nuclear localization
- subcellular localization ([3]; biotin label, 4, 8 and 24 hr.): cytosolic/perinuclear localization
- subcellular localization ([3]; biotin label, 5 min): cell membrane binding
- cytosolic or perinuclear localization [4]: no cytosolic or perinuclear localization

Reference: patent publication US11136367B2, “Multi-level specific targeting of cancer cells” (Wake Forest University Health Sciences, priority 2010, dated 2021)
